For assay [1], the target named is cAMP-dependent protein kinase catalytic subunit alpha (Homo sapiens, UniProt P17612). To be noted: at 10 µM.
Assay [2] has as its target Cyclin-dependent kinase-like 1 (Homo sapiens) (UniProt Q00532). The assay is described as follows: Selectivity interaction (Kinase panel (DSF assay)) EUB0001558a CDKL1. (Differential scanning fluorimetry follows unfolding on heating by fluorescence.)
Assay [3] deals with Mitogen-activated protein kinase 7 (Homo sapiens) (UniProt Q13164). Put plainly: Selectivity interaction (Ambit KINOMEscan and KiNATiv profiling in Jurkat cells) EUB0000090b MAPK7. It counts as cell-based. As to conditions: at 1 µM.
Chain of Mitogen-activated protein kinase 7 (Homo sapiens) (Q13164 2-816 limits assumed): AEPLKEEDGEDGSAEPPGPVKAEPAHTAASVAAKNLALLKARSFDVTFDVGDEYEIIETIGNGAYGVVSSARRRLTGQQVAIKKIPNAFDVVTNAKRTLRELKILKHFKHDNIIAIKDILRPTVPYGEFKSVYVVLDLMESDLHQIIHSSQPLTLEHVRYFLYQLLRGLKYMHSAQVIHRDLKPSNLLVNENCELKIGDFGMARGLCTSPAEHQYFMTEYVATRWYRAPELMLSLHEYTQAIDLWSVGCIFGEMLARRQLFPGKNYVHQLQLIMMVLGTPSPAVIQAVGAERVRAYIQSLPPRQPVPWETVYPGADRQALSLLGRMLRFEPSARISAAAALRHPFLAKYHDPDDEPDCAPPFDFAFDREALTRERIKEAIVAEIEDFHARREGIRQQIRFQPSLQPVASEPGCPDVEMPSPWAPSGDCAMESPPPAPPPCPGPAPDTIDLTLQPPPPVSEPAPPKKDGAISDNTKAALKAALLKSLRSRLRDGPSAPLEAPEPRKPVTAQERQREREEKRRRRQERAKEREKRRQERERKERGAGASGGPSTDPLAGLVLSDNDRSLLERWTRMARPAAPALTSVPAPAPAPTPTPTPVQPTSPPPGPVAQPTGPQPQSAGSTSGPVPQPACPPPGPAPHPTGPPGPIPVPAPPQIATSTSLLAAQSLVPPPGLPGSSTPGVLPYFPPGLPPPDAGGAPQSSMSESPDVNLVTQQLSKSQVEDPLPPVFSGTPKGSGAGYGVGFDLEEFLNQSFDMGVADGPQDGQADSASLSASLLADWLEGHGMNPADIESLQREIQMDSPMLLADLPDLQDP
Assay [4] has as its target T1, Cyclin-G-associated kinase (Homo sapiens) (UniProt O14976).
T1 sequence (whole entry): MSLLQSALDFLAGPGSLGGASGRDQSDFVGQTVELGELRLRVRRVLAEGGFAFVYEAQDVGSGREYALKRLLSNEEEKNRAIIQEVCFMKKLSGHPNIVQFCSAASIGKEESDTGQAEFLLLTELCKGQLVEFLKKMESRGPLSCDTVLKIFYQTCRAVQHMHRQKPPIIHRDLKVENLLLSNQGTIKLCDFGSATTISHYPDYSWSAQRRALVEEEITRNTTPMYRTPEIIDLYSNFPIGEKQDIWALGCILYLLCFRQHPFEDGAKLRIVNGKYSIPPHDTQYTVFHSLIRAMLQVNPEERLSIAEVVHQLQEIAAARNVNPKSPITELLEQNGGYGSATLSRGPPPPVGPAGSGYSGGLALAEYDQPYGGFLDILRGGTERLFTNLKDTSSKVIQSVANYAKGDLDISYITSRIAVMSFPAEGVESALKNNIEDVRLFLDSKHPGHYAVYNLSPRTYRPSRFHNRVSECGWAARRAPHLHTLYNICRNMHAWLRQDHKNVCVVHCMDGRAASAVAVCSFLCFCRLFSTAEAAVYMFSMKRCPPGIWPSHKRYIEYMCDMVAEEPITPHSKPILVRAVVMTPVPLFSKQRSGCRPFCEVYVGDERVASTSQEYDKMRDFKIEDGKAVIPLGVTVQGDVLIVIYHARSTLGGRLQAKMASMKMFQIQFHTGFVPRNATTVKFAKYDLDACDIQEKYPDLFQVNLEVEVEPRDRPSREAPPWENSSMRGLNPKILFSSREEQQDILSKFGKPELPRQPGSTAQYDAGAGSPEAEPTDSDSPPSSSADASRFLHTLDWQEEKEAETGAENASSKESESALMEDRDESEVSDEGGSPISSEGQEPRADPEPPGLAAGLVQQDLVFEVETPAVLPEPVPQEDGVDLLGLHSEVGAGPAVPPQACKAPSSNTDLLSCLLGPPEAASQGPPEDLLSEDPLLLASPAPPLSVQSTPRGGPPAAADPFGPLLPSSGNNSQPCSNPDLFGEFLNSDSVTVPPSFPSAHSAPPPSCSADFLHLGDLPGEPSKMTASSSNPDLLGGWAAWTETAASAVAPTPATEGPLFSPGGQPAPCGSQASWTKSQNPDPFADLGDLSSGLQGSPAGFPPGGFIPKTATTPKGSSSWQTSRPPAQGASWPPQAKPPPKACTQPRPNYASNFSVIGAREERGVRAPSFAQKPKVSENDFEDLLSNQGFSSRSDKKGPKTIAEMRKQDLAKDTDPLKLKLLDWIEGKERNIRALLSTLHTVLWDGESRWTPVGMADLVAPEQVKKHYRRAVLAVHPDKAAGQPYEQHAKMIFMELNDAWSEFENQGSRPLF
As to conditions: at 10 µM.

Assay [5] concerns the target Tyrosine-protein kinase BTK (Homo sapiens, UniProt Q06187). The assay is described as follows: Selectivity interaction (KinomeScan (DiscoverX)) EUB0001079a BTK. As to conditions: at 1 µM.
The target in assay [6] is Bone morphogenetic protein receptor type-1A (Homo sapiens, UniProt P36894). The assay is described as follows: Selectivity interaction (KinomeScan (DiscoverX)) EUB0001079a BMPR1A. As to conditions: at 1 µM.
Chain of Bone morphogenetic protein receptor type-1A (P36894 whole entry): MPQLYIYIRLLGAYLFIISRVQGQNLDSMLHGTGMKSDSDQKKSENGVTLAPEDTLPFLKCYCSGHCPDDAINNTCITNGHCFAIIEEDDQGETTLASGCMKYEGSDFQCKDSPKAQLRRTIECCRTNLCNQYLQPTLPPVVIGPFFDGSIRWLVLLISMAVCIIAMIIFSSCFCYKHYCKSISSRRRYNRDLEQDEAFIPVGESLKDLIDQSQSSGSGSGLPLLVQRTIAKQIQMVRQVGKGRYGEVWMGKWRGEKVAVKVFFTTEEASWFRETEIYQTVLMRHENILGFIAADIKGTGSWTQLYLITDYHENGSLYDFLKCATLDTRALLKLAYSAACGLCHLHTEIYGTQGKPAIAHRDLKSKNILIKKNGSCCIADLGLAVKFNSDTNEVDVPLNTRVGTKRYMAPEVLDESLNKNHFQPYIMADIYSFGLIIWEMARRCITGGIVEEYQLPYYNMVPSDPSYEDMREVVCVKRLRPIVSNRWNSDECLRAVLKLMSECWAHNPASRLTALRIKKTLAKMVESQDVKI
Assay [7] addresses Serine/threonine-protein kinase PAK 4 (Homo sapiens, UniProt O96013). The assay is described as follows: Selectivity interaction (KinomeScan (DiscoverX)) EUB0001049a PAK4. As to conditions: at 1 µM.
In assay [8] the target is Lethal(3)malignant brain tumor-like protein 1 (Homo sapiens) (UniProt Q9Y468). The assay is described as follows: Selectivity interaction (PWWP, WD40, and Tudor domain panel (DSLS measurements, literature)) EUB0000270b L3MBTL.
Assay [9] concerns the target Calcium/calmodulin-dependent protein kinase kinase 1 (Homo sapiens) (UniProt Q8N5S9). Put plainly: Selectivity interaction (KinomeScan (DiscoverX)) EUB0000045b CAMKK1.
The target in assay [10] is T2, PAN2-PAN3 deadenylation complex subunit PAN3 (Homo sapiens) (UniProt Q58A45).
T2 sequence (whole entry): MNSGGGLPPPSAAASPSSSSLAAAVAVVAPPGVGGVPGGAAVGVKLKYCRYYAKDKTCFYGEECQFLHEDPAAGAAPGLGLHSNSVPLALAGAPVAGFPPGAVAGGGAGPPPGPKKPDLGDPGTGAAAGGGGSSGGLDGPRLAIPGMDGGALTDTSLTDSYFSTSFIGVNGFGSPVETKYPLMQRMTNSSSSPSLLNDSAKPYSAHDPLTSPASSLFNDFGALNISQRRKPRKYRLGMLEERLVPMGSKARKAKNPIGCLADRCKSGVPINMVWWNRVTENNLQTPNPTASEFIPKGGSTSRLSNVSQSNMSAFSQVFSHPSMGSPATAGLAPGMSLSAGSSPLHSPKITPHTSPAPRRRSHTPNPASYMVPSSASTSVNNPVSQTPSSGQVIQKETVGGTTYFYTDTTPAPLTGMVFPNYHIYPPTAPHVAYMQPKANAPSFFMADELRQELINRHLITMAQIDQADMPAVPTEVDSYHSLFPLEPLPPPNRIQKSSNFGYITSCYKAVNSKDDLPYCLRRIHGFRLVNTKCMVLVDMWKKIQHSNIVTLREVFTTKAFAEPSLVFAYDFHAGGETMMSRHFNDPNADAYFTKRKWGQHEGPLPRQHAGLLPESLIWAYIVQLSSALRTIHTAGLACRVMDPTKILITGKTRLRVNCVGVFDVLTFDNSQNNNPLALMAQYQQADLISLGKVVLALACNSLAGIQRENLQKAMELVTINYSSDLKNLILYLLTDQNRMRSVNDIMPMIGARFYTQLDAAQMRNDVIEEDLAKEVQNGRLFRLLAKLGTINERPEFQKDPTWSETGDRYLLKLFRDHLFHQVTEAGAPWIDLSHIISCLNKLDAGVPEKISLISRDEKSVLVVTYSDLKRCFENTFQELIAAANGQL
The assay is described as follows: Selectivity interaction (ActivX KiNativ screen (kinase selectivity in THP-1 cell lysates)) EUB0000639a PAN3. It counts as subcellular. As to conditions: lysate.

The target in assay [11] is Fibroblast growth factor receptor 3 (Homo sapiens, UniProt P22607). The assay is described as follows: (§1) Selectivity interaction (KinomeScan (DiscoverX)) EUB0000229b FGFR3. To be noted: at 10 µM.
Chain of Fibroblast growth factor receptor 3 (P22607 23-806 limits assumed): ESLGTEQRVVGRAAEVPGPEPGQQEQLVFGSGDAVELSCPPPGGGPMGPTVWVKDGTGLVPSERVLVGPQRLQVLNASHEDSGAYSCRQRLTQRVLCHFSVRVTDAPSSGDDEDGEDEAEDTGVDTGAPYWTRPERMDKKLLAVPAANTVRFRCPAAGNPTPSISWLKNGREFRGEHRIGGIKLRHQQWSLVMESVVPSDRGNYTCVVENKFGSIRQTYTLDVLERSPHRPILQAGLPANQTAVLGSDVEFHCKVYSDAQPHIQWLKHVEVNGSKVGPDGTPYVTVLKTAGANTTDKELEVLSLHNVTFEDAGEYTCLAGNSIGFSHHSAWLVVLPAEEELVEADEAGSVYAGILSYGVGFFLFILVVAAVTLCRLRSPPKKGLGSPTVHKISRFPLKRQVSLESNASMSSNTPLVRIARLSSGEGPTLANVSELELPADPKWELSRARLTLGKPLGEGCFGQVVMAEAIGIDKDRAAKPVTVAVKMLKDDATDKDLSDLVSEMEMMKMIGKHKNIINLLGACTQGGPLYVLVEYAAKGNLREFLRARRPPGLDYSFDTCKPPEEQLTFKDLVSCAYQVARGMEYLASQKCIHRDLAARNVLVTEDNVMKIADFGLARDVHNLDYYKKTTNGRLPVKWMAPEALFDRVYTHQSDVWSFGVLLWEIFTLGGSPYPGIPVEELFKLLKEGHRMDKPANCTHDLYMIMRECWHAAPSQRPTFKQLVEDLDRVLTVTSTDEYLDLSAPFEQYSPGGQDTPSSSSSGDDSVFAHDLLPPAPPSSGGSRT
The subject of assay [12] is Fibroblast growth factor receptor 3 (Homo sapiens), P22607 [G697C]. Described as §1. As to conditions: at 1 µM.

Each structure is given as a SMILES string.

Chain of Calcium/calmodulin-dependent protein kinase kinase 1 (Homo sapiens) (Q8N5S9 whole entry, looked up): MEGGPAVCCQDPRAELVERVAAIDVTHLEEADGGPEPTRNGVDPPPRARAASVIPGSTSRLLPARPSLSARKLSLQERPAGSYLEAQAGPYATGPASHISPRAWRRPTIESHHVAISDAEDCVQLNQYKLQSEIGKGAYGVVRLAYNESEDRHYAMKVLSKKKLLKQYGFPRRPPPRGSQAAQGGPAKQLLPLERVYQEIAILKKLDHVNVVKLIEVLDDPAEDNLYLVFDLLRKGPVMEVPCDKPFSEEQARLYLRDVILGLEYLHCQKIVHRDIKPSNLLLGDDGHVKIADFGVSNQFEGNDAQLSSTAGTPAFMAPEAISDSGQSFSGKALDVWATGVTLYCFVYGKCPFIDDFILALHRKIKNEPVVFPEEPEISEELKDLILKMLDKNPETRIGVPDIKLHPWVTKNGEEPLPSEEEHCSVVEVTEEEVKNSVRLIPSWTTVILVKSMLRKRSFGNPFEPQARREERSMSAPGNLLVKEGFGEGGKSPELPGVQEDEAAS
Chain of Tyrosine-protein kinase BTK (Q06187 whole entry): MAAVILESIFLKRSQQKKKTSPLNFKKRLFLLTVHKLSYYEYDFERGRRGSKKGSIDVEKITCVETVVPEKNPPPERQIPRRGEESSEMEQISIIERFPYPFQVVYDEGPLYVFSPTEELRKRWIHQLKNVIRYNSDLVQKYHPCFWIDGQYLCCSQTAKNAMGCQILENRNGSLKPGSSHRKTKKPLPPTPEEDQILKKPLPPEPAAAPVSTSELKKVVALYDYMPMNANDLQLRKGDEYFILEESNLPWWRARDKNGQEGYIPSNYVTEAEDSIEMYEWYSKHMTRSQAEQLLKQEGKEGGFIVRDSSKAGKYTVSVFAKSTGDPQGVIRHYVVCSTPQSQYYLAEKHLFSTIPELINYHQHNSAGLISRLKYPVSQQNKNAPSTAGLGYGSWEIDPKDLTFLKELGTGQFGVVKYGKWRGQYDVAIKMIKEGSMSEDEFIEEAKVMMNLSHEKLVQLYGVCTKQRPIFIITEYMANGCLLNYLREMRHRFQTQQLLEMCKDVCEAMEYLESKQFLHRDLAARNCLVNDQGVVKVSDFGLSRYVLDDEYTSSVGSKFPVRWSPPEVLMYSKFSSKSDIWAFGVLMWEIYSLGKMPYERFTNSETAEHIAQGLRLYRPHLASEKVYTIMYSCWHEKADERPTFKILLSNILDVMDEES
Chain of Fibroblast growth factor receptor 3 (Homo sapiens), P22607 [G697C] (P22607 whole entry G697C): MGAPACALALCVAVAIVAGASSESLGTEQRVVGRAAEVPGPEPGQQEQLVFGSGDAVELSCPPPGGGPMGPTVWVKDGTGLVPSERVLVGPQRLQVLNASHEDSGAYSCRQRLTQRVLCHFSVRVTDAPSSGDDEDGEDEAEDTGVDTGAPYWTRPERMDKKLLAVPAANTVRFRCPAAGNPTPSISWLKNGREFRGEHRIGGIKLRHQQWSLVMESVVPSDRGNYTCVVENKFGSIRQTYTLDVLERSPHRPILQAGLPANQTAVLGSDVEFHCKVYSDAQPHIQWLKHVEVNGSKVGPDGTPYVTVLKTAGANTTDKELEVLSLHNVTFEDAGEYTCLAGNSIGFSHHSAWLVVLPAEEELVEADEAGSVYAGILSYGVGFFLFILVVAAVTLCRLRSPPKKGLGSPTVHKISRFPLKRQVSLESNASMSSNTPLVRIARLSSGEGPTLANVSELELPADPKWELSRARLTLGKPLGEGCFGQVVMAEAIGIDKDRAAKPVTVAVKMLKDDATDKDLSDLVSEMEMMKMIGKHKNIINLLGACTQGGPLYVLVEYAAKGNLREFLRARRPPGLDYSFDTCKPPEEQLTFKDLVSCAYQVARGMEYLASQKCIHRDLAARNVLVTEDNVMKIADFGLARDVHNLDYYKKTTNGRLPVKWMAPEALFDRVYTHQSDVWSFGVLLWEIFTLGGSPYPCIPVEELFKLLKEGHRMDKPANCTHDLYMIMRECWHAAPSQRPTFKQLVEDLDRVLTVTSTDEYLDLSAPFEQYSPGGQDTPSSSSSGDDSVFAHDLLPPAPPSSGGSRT
Chain of Serine/threonine-protein kinase PAK 4 (O96013 whole entry, looked up, the tested form may be a part): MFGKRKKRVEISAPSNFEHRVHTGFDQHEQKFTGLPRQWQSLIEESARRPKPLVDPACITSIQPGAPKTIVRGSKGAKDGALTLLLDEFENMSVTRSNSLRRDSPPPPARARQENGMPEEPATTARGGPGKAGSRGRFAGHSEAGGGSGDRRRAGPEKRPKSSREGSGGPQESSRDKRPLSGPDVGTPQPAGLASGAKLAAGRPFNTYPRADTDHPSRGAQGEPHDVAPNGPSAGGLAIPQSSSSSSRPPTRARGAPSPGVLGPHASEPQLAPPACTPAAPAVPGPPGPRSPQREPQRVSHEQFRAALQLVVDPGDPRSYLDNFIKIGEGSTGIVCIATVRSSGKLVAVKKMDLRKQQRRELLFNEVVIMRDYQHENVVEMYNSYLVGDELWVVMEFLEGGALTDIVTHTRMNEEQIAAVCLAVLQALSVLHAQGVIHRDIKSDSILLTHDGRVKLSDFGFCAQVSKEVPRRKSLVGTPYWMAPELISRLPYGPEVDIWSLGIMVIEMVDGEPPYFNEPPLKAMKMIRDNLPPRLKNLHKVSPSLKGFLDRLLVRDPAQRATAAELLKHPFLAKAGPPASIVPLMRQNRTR
Chain of Cyclin-dependent kinase-like 1 (Homo sapiens) (Q00532 whole entry): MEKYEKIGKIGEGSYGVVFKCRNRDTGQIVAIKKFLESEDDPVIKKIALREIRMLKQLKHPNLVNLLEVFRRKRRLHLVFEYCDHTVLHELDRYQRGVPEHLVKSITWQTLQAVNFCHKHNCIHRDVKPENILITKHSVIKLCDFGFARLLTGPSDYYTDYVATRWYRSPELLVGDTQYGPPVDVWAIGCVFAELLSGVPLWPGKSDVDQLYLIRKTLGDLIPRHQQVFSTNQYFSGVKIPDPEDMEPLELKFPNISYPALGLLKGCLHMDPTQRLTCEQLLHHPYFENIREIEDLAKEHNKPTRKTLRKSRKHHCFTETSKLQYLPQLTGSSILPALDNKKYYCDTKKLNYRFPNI

Compound `Cc1cc([C@@H](C)Nc2ccccc2C(=O)O)c2nc(N3CCOCC3)cc(=O)n2c1` [AZD-6482] gave a % of control in assay [1] of 100%.

The compound `CC(C)(O)[C@H](F)CN1Cc2cc(NC(=O)c3cnn4cccnc34)c(N3CCOCC3)cc2C1=O` registered a dTM in [2] of -0.4 K.

In assay [3], `CN(C)C/C=C/C(=O)Nc1ccc(C(=O)N2CCCC(Nc3ncc(Cl)c(-c4c[nH]c5ccccc45)n3)C2)cc1` (configuration not stated) showed a % of control of 88%.

On to `CCN(CC)CCCCNc1ncc2cc(-c3cc(OC)cc(OC)c3)c(NC(=O)NC(C)(C)C)nc2n1`, for which, in assay [4], the % of control worked out at 100%.

Turning to `Nc1cnc(N2CCc3cc(S(=O)(=O)Nc4c(F)cc(Cl)cc4F)cc(N4CCCC4=O)c32)nc1` [TP-020n], the % of control amounted to 100% in assay [5] and 91% in assay [6].

In turn, `COc1cc(Nc2nc(C)cc(-c3cnn4nc(OC)ccc34)n2)cc(C(F)(F)F)c1` registered a % of control in [7] of 88%.

In the case of `Cc1cc(CN)cc(C)c1-c1ncn(C)c1-c1cncn1C`, the dTagg in [8] is 0.2 K.

Take `C=CC(=O)Nc1cc(-n2c(=O)ccc3cnc4ccc(-c5ccc(NS(C)(=O)=O)cc5)cc4c32)ccc1C`: the % of control was determined as 100% in assay [9] (at 1 µM) and 74% in assay [9] (at 10 µM).

As to `CC[C@@H]1[C@H](F)C(=O)N[C@@H]1COc1nccc2cc(C(N)=O)c(OC)cc12` [ZIMLOVISERTIB], the % of inhibition was 20.4% in assay [10] (at 0.01 µM); -4.3% in assay [10] (at 0.04 µM); -4.4% in assay [10] (at 0.2 µM); -2.8% in [10] (at 1 µM); -19.6% in assay [10] (at 5 µM).

Take `COc1cc(N(C)c2ccnc3ccc(C(F)(F)F)cc23)cc(OC)c1OC`: the % binding in [11] amounted to 100%; in assay [12] it was 90%.

The values above are taken from ChEMBL document CHEMBL5465560, “Selectivity Literature for EUbOPEN Chemogenomic Library” (2024).
